Laboratory results reported in patent US20240277682A1, “PHARMACEUTICAL HYDRONIDONE FORMULATIONS FOR DISEASES” (Gyre Therapeutics, Inc., priority 2021, published 2024).
Like-named read-outs stand apart in the source and are kept apart here.

What was measured:
[1] = Double-blind placebo-controlled tolerability study of single and multiple ascending doses in healthy subjects (Example 6); assay type: in vivo; settings: for ALT / AST: one subject
From the text: The main objective of this study was to evaluate the tolerability of single and multiple ascending doses of Hydronidone in healthy subjects to support further Phase 1 studies as well to provide supportive information for dosage regimen in Phase II clinical trials.
This was a randomized, double-blind, placebo-controlled, in-patient study of single and multiple escalating doses of Hydronidone in healthy Chinese male and female subjects, 18-45 years of age, satisfying all inclusion and exclusion criteria. Hydronidone 100 mg and 200 mg capsule dosage strengths were used in the study. In every cohort, the subjects were randomly assigned to Hydronidone or placebo at a ratio of 3:1.
The single-dose component of the trial included 30 subjects that received 100 mg, 200 mg, 400 mg, 600 mg and 800 mg of Hydronidone, respectively (6 subjects/cohort). The post-dose observations were performed 24 hrs following the dosing. All subjects have completed the trial. […] Mild transient dizziness following administration of the test article was reported in one subject in each of the 800 mg Hydronidone and placebo cohorts. The dizziness resolved on its own, without sequelae. The post-dose values of some of the laboratory parameters were abnormal, both in Hydronidone and placebo groups. However, these changes were not considered clinically significant.
The multiple-dose component of the trial included 20 subjects assigned to receive 600 mg (8 subjects) three times per day (TID) (total daily dose of 1800 mg), or 800 mg of Hydronidone (12 subjects) TID (total daily dose of 2400 mg) for ten (10) consecutive days. Due to several cases of AEs of hypertriglyceridemia (4 out of 8 subjects) observed in the Hydronidone 600 mg TID dose group, the subjects (n=8) in the Hydronidone TID 800 mg dose group were divided into two subgroups, each comprising of 4 subjects. […] Due to inadvertent omission of the blood glucose test in the first sub-group (all four subjects) of the Hydronidone 800 mg TID dose group at the final study visit, per Principal Investigator decision, the enrollment was extended to include new four (4) subjects, increasing the total number of subjects in this dose group to 12. The safety evaluations were performed pre-dose, on the Day 5 of dosing, and 24 hr after the last dose of the 10-day dosing period.

[2] = In vitro drug-drug interaction with Entecavir and Lamivudine in human liver microsomes
Procedure: Entecavir and Lamivudine, were used concomitantly with Hydronidone, or individually, in the in vitro drug interaction experiments, in respective concentrations of each of 1.5 mM.

[3] = In vitro Phase 2 metabolism in human liver microsomes; assay type: in vitro ADME; settings: 30 minutes incubation
[4] = PK study of single ascending oral doses in healthy volunteers (Example 7); assay type: in vivo, human; settings: for CL renal / AUC / AUC(0-t) / Cmax / Tmax: male, human; for CL renal: plasma and urine; for CL renal / AUC / AUC(0-t) / Cmax / Tmax / Cl_F_pred / HL_Lambda_z / Lambda_z / Vz_F_pred: fasted; for CL renal / AUC / AUC(0-t) / Cmax / Cl_F_pred / HL_Lambda_z / Lambda_z / Vz_F_pred / Amount_Recovered / Percent_Recovered (urinary percentage of Hydronidone): n = 12, Mean(SD); for AUC / AUC(0-t) / Cmax / Tmax: plasma; for AUC: healthy Chinese subjects, read-out: AUCINE_pred; for Tmax: n = 12, Median (Min-Max); for Amount_Recovered / Percent_Recovered (urinary percentage of Hydronidone): urine
Procedure: This was randomized, open-label, 4-period, crossover PK study of single ascending oral doses of Hydronidone in healthy volunteers.
Ascending single oral doses of 200 mg, 400 mg, 600 mg and 800 mg of Hydronidone were given to 12 eligible, healthy male Chinese subjects, 26-38 years of age, satisfying all inclusion and exclusion criteria, and randomly divided into four dose groups, 3 subjects per group, under fasted conditions. According to the Williams Design, the subjects in each group were treated with Hydronidone at four different doses in four periods. The PK blood samples were collected at: 0 (pre-dose), 10 min, 20 min, 30 min, 40 min, 1 hr, 1.5 hr, 2 hr, 3 hr, 4 hr, 5 hr, 6 hr, 8 hr, 10 hr, 12 hr, 16 hr, and 24 hr, and 48 hr post-dose. The subjects also provided PK urine samples at 0 (pre-dose), 5 hr, 12 hr, and 24 hr post-dose. There was additional 24 hr washout period after the end of collection of PK samples, a total of 48 hrs between the first and the next dose level administration. Blood and urine samples were analysed for determination of plasma and urine concentrations of Hydronidone and its metabolites (M3).

[5] = tested on: CCl4 and western diet (WD) induced NASH; assay: (CCl4+HFD) induced NASH model in mice; assay type: in vivo
From the text: The total NASH score was lower at dosage of 15 milligram per kilogram (mpk) and 50 mpk.

[6] = In vitro Phase I metabolism in human liver microsomes; assay type: in vitro ADME
Procedure: The in vitro Phase I metabolism of hydronidone was evaluated by incubating human liver microsomes with hydronidone for 60 minutes.

[7] = 800 mg TID, fifth day of dosing
[8] = 800 mg TID, repeated test on study day 6

Cc1ccc(=O)n(-c2ccc(O)cc2)c1 [Hydronidone, N-(4-hydroxyphenyl)-5-Methyl-2-pyridone]
instances of hypertriglyceridemia ([1]; 600 mg TID, 10 days): 3 instances
number of AEs reported ([1]; 600 mg TID, 10 days): 7 AEs
instances of hyperlipidemia ([1]; 800 mg TID, 10 days): 3 instances
instances of liver dysfunction ([1]; 800 mg TID, 10 days): 3 instances
number of AEs reported ([1]; 800 mg TID, 10 days): 14 AEs
deaths and SAEs ([1]; multiple-dose component, 600 or 800 mg TID, 10 days): No deaths nor SAEs were reported
ALT [1, 7]: 79 U/L
AST [1, 7]: 47 U/L
ALT [1, 8]: 101 U/L
AST [1, 8]: 61 U/L
subjects with mild transient dizziness ([1]; single dose 800 mg cohort): one
safety and tolerability ([1]; single dose 100, 200, 400, 600, 800 mg, healthy subjects): safe and well tolerated at all doses tested
deaths and serious adverse events ([1]; single-dose component): No deaths nor serious adverse events (SAEs) were reported
role of liver metabolism as metabolic pathway [2]: the liver metabolism is not the main Hydronidone metabolic pathway
generation of the M4 metabolite [3]: detected
amount of intact drug excreted via urine during 48 h ([4]; first of four values (doses 200, 400, 600, 800 mg): 200 mg): 82.25 ± 40.95 mg
amount of intact drug excreted via urine during 48 h ([4]; fourth of four values: 800 mg): 234.72 ± 210.50 mg
CL renal ([4]; single oral dose 200 mg): 14.7 mL/min
CL renal ([4]; single oral dose 400 mg): 11.1 mL/min
CL renal ([4]; single oral dose 600 mg): 9.83 mL/min
CL renal ([4]; single oral dose 800 mg): 8.7 mL/min
AUC ([4]; single oral dose 200 mg): 1380 ng·h/mL
AUC(0-t) ([4]; single oral dose 200 mg): 1360 ng·h/mL
Cmax ([4]; single oral dose 200 mg): 715 ng/mL
Tmax ([4]; single oral dose 200 mg): 19.8 min
AUC ([4]; single oral dose 400 mg): 2800 ng·h/mL
AUC(0-t) ([4]; single oral dose 400 mg): 2780 ng·h/mL
Cmax ([4]; single oral dose 400 mg): 1400 ng/mL
Tmax ([4]; single oral dose 400 mg): 19.8 min
AUC ([4]; single oral dose 600 mg): 5010 ng·h/mL
AUC(0-t) ([4]; single oral dose 600 mg): 4920 ng·h/mL
Cmax ([4]; single oral dose 600 mg): 2500 ng/mL
Tmax ([4]; single oral dose 600 mg): 40.2 min
AUC ([4]; single oral dose 800 mg): 6310 ng·h/mL
AUC(0-t) ([4]; single oral dose 800 mg): 6290 ng·h/mL
Cmax ([4]; single oral dose 800 mg): 2960 ng/mL
Tmax ([4]; single oral dose 800 mg): 40.2 min
amount of intact drug excreted via urine during 48 h ([4]; second of four values: 400 mg): 183.75 ± 142.14 mg
Cl_F_pred ([4]; single oral dose 200 mg): 154(39.65) L/hr
HL_Lambda_z ([4]; single oral dose 200 mg): 6.9(2.06) hr
Lambda_z ([4]; single oral dose 200 mg): 0.1093(0.03) l/hr
Vz_F_pred ([4]; single oral dose 200 mg): 1540(644.41) L
Cl_F_pred ([4]; single oral dose 400 mg): 154(44.83) L/hr
HL_Lambda_z ([4]; single oral dose 400 mg): 5.26(1.58) hr
Lambda_z ([4]; single oral dose 400 mg): 0.1434(0.04) l/hr
Vz_F_pred ([4]; single oral dose 400 mg): 1180(530.69) L
Cl_F_pred ([4]; single oral dose 600 mg): 129(35.67) L/hr
HL_Lambda_z ([4]; single oral dose 600 mg): 6.46(2.07) hr
Lambda_z ([4]; single oral dose 600 mg): 0.1141(0.02) l/hr
Vz_F_pred ([4]; single oral dose 600 mg): 1180(407.19) L
Cl_F_pred ([4]; single oral dose 800 mg): 134(35.93) L/hr
HL_Lambda_z ([4]; single oral dose 800 mg): 5.54(0.86) hr
Lambda_z ([4]; single oral dose 800 mg): 0.1278(0.02) l/hr
Vz_F_pred ([4]; single oral dose 800 mg): 1080(336.89) L
safety and tolerability ([4]; single oral doses of 200, 400, 600, 800 mg, Chinese healthy subjects): safe and well tolerated with no adverse events nor SAEs reported
amount of intact drug excreted via urine during 48 h ([4]; third of four values: 600 mg): 218.93 ± 182.73 mg
Amount_Recovered ([4]; single oral dose 200 mg): 1.27(1.34) L*mg/L
Percent_Recovered (urinary percentage of Hydronidone) ([4]; single oral dose 200 mg): 0.634±0.57%
Percent_Recovered (urinary percentage of Hydronidone) ([4]; single oral dose 200 mg, listed as hydronidone): 0.634(0.57) %
Amount_Recovered ([4]; single oral dose 400 mg): 1.92(0.87) L*mg/L
Percent_Recovered (urinary percentage of Hydronidone) ([4]; single oral dose 400 mg): 0.479±0.22%
Percent_Recovered (urinary percentage of Hydronidone) ([4]; single oral dose 400 mg, listed as hydronidone): 0.479(0.22) %
Amount_Recovered ([4]; single oral dose 600 mg): 2.86(1.19) L*mg/L
Percent_Recovered (urinary percentage of Hydronidone) ([4]; single oral dose 600 mg): 0.476±0.2%
Percent_Recovered (urinary percentage of Hydronidone) ([4]; single oral dose 600 mg, listed as hydronidone): 0.476(0.2) %
Amount_Recovered ([4]; single oral dose 800 mg): 3.22(2.03) L*mg/L
Percent_Recovered (urinary percentage of Hydronidone) ([4]; single oral dose 800 mg): 0.403±0.25%
Percent_Recovered (urinary percentage of Hydronidone) ([4]; single oral dose 800 mg, listed as hydronidone): 0.403(0.25) %
total NASH score ([5]; 15 milligram per kilogram (mpk)): lower
fibrosis and cell ballooning (H&E staining) ([5]; 15 mpk): significantly inhibited
fibrosis and cell ballooning (H&E staining) ([5]; 50 mpk): significantly inhibited
total NASH score ([5]; 50 mpk): lower
potency compared with pirfenidone ([5]; NASH model in mice): more potent than pirfenidone
effect on CCl4 and western diet (WD) induced NASH (H&E staining) ([5]; mice): protective effect
formation of metabolites [6]: no formation of metabolites was observed
